Laboratory results published in patent US20010051602A1, “Methods for increasing ApoE levels for the treatment of neurodegenerative disease” (priority 1997, published 2001).
Values joined by “and” are separate entries in the source; they are usually repeats but may differ in a detail not shown here. Equal values may be shown once.

Key:
ApoE [1] = test: ApoE in medium of rat primary type 1 astrocyte cultures exposed to probucol, immunoblot; type: cell-based
Procedure: Apo E concentration was assessed in the cell culture medium by immunoblot analysis using methods previously described (Poirier et al., Neuroscience, 55:81-90 (1993)). In the absence of probucol (EtOH control) very little ApoE is detected in the media (i.e., the extracellular compartment). […] We also observed that the amount of ApoE detected in the media at 48 hours was less than the amount of ApoE in the media after only 24 hours of incubation. This time-dependent response in ApoE levels may reflect the continued division and growth of cells.

ApoE [2] = test: in vivo effect of probucol on ApoE levels in murine tissues, immunoblot densitometry; conditions: mice; for ApoE G/Dens (% Peak) / ApoE G/Dens-DD / ApoE G/DxA (% Total): pooled
Procedure: To extend the foregoing in vitro studies, the following animal study was conducted. […] At the end of ten days, the animals were sacrificed and the brain tissue collected, rapidly dissected, and the hippocampi were isolated. The livers, tissue, and blood were also collected. Tissue homogenates from all ten animals were pooled and the ApoE levels in the different tissues were determined by immunoblot.

ApoE [3] = test: clinical trial: ApoE levels in CSF of AD patients treated with probucol, immunoblot; type: in vivo, human; conditions: probucol 1000 mg/day; for Average Change in ApoE (% baseline): one month of treatment, 8 patients
Procedure: Biological Marker: A lumbar puncture was performed at baseline and one month after treatment. The relative concentrations of ApoE levels in the CSF were determined by immunoblot as described by Poirer, J. et al., Neuroscience 55:81-90 (1993).
The cerebral spinal fluid (CSF) of the above subjects was analyzed for the concentration of ApoE protein by immunoblot using an internal standard. The samples for the first six patients were analyzed independently of the last two patients, thus the scales for patients 1-6 are different from the scales for patients 8 and 9.

Alzheimer's disease = test: clinical trial: Clinical Impression of Change (CIBIC-Plus); type: in vivo, human; set-up: key to CIBIC Scores, 3 months, Average / CIBIC Scores, 6 months, Average: 7-point scale: 1 = very much improved, 4 = no change, 7 = very much worse
Procedure: Neuropsychological Assessment: The Clinical Impression of Change (CIBIC-Plus) and the Global Deterioration Scale (GDS) were recorded at 3 and 6 months. The Clinical Impression of Change (CIBIC-Plus) consists of the holistic impression by the clinician of whether the patient has shown any change since baseline as rated on a seven point sale (marked, moderate, mild improvement, no change, or marked, moderate, mild decline). The Global Deterioration Scale rates clinically identifiable stages of dementia. […] This test provides a holistic impression by the clinician of whether the patient has shown any change since baseline. The CIBIC is scored as a seven point scale, with a range from 1=“very much improved” to 4=“no change” to 7=“very much worse.” Changes in the CIBIC score have shown only weak correlation with changes in the ADAS-Cog and have been reported to be less sensitive to change than other measures. The FDA guidelines are widely interpreted as mandating the use of the CIBIC and this scale serves to measure the impact of treatment protocols on the quality of life for the patient.

cortical infarct = test: Wistar rat middle cerebral artery occlusion stroke model; type: in vivo; conditions: rats dosed i.p. daily for ten days, 2 hour middle cerebral artery occlusion, 22 hours reperfusion
Procedure: In particular, the Wistar rat model may be used with modifications. Briefly, rats are dosed (i.p.) daily with probucol or a saline negative control for ten days. On the tenth day, animals are then subjected to a 2 hour reversible, middle cerebral artery occlusion. Laser-Doppler flowmetry is used to monitor the ischemic period and early reperfusion. […] We predict that the cortical infarct volumes (indicative of neuronal damage) will be less in animals treated with probucol as compared to untreated animals.

[4] = Blood, 0.1 mg i.p. daily for ten days
[5] = Blood, 0.5 mg i.p. daily for ten days
[6] = Blood, 5.0 mg i.p. daily for ten days
[7] = Hippocampus, 0.1 mg i.p. daily for ten days
[8] = Hippocampus, 0.5 mg i.p. daily for ten days
[9] = Hippocampus, 5.0 mg i.p. daily for ten days
[10] = Liver, 0.1 mg i.p. daily for ten days
[11] = Liver, 0.5 mg i.p. daily for ten days
[12] = Liver, 5.0 mg i.p. daily for ten days
[13] = highest administered dose (5 mg), ten days
[14] = individual AD patient, 1 very much improved, 4 no change, 7 very much worse

With `CC(C)(Sc1cc(C(C)(C)C)c(O)c(C(C)(C)C)c1)Sc1cc(C(C)(C)C)c(O)c(C(C)(C)C)c1` [probucol] the “extracellular amount of ApoE” value (ApoE [1]; 1 nM, 24 hours post dosing, versus EtOH control) was “dramatically increased”, the “extracellular ApoE with increasing concentrations” value (ApoE [1]; 100 nM and 10 uM versus 1 nM) was “Further increases” and the “amount of ApoE in the media at 48 hours versus 24 hours” value (ApoE [1]; 48 hours compared with 24 hours of incubation) was “less”. The “ApoE G/Dens (% Peak)” value (ApoE [2]; [4]) was 70.886 % Peak, the “ApoE G/Dens-DD” value (ApoE [2]; [4]) was 0.2783 and the “ApoE G/DxA (% Total)” value (ApoE [2]; [4]) was 19.187 % Total. For the same compound, the “ApoE G/Dens (% Peak)” value (ApoE [2]; [5]) was 57.610 % Peak, the “ApoE G/Dens-DD” value (ApoE [2]; [5]) was 0.2262 and the “ApoE G/DxA (% Total)” value (ApoE [2]; [5]) was 14.885 % Total. The “ApoE G/Dens (% Peak)” value (ApoE [2]; [6]) was 45.847 % Peak, the “ApoE G/Dens-DD” value (ApoE [2]; [6]) was 0.1800 and the “ApoE G/DxA (% Total)” value (ApoE [2]; [6]) was 11.846 % Total. The “ApoE G/Dens (% Peak)” value (ApoE [2]; [7]) was 18.571 % Peak, the “ApoE G/Dens-DD” value (ApoE [2]; [7]) was 0.0729 and the “ApoE G/DxA (% Total)” value (ApoE [2]; [7]) was 4.570 % Total. The “ApoE G/Dens (% Peak)” value (ApoE [2]; [8]) was 14.958 % Peak, the “ApoE G/Dens-DD” value (ApoE [2]; [8]) was 0.0587 and the “ApoE G/DxA (% Total)” value (ApoE [2]; [8]) was 3.497 % Total. The “ApoE G/Dens (% Peak)” value (ApoE [2]; [9]) was 25.469 % Peak, the “ApoE G/Dens-DD” value (ApoE [2]; [9]) was 0.1000 and the “ApoE G/DxA (% Total)” value (ApoE [2]; [9]) was 5.954 % Total. The “ApoE G/Dens (% Peak)” value (ApoE [2]; [10]) was 21.386 % Peak, the “ApoE G/Dens-DD” value (ApoE [2]; [10]) was 0.0840 and the “ApoE G/DxA (% Total)” value (ApoE [2]; [10]) was 5.263 % Total. The “ApoE G/Dens (% Peak)” value (ApoE [2]; [11]) was 11.315 % Peak, the “ApoE G/Dens-DD” value (ApoE [2]; [11]) was 0.0444 and the “ApoE G/DxA (% Total)” value (ApoE [2]; [11]) was 2.506 % Total. The “ApoE G/Dens (% Peak)” value (ApoE [2]; [12]) was 8.268 % Peak, the “ApoE G/Dens-DD” value (ApoE [2]; [12]) was 0.0325 and the “ApoE G/DxA (% Total)” value (ApoE [2]; [12]) was 1.933 % Total. For the same compound, the “levels of ApoE in the blood, % of the control value” (ApoE [2]; [13]) was 60%, the “levels of ApoE in the liver, % of the control value” (ApoE [2]; [13]) was 60% and the “levels of ApoE in the brain, % of the control value” (ApoE [2]; highest dose evaluated (5 mg), ten days) was “approximately 150%”. For the same compound, the “Change in ApoE (% baseline)” value (ApoE [3]; 1 month, individual AD patient) was 118% baseline and 89% baseline and 87% baseline and 152% baseline and 105% baseline and 178% baseline and 136% baseline and 133% baseline, the “ApoE 1 month (ROD)” value (ApoE [3]; individual AD patient, scales of patients 1-6 differ from patients 8 and 9) was 2.59 ROD and 7.14 ROD and 9.17 ROD and 0.1086 ROD and 0.0861 ROD and 8.03 ROD and 14.81 ROD and 10.27 ROD and the “Average Change in ApoE (% baseline)” value (ApoE [3]) was 125%. For the same compound, the “Average Change in ApoE (% baseline)” value (ApoE [3]; listed as Probucol) was 125%, the “CIBIC-Plus evaluation for the group as a whole” value (Alzheimer's disease; 6 month course of treatment) was “slight deterioration” and the “CIBIC Scores, 3 months, Average” value (Alzheimer's disease; average of patients) was 3.9. For the same compound, the “CIBIC Scores, 6 months, Average” value (Alzheimer's disease; average of patients) was 5.3, the “CIBIC Scores, 3 months” value (Alzheimer's disease; [14]) was 3 (3×) and 5 (2×) and 4 (4×) and the “CIBIC Scores, 6 months” value (Alzheimer's disease; [14]) was 5 (4×) and 6 (3×) and 4. The “cortical infarct volumes compared to untreated animals” value (cortical infarct) was “less”.
